Experiments:
[1] = test system: STAT5 Y694 phosphorylation; assay: HTRF experiment: STAT5 Y694 phosphorylation in Hela cells stimulated with human interferon beta; format: cell-based; conditions: 2 hours pretreatment, 10 nM human interferon beta 30 minutes
[2] = test system: STAT5 Y694 phosphorylation; assay: Protein electrophoresis and blotting of STAT5 Y694 phosphorylation in Jurkat cells stimulated with human interferon beta; format: cell-based; conditions: observed pSTAT5 bands at 10 μM and 100 μM
Outline: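 Serum-free Jurkat cells pretreated with compound 1 h, then stimulated with 20 ng/ml human interferon beta for 30 min at 37° C. pSTAT5 measured by western blot with chemiluminescence, normalized to GAPDH and expressed as percent of DMSO control.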

[3] = test system: mouse collagen-induced arthritis model; assay: Therapeutic efficacy in a mouse collagen-induced arthritis model (clinical score); format: in vivo; conditions: mean of group, total score 0-12, oral, Methotrexate 0.25 mg/kg once a week, Tofacitinib 5 mg/kg once a day, X8 1 mg/kg once a day
Excerpt: Example of Effect 2: Evaluation of the Therapeutic Efficacy of X8 Compound in a Mouse Collagen-Induced Arthritis Model
(§1) Sixty male DBA/1J mice (9-10 weeks old, H-2q haplotype) were acclimatized in a standard animal room for one week and then randomly divided into 5 groups. Except for the healthy control group, the rest were inoculated with collagen antigen injection, and then received oral treatment with different compounds. The brief procedure was to mix bovine type II collagen (purchased from Chondrex, 20021) with an equal volume of Freund's complete adjuvant (purchased from Sigma, F5881), the concentration was 4 mg/ml, and it was treated with a homogenizer at a speed of 20,000 revolutions/min for 5-10 minutes. A needle was inserted between the left side of the dorsal caudal artery and the lateral vein of the mouse, and 50 microliters of modeling agent was injected subcutaneously. 21 days after the first injection, another injection was injected between the right side of the dorsal tail artery and the lateral vein of the mouse. After the first injection, oral administration was started. The drug was formulated with […] PEG300, and it was prepared for immediate use. […] The total score was between 0-12 points, and the swelling of the foot after vaccination was not calculated.

[4] = Body weight of animals in the mouse collagen-induced arthritis model; format: in vivo; conditions: oral, X8 1 mg/kg once a day; for body weight of animals, Mean/g: mean of group, Methotrexate 0.25 mg/kg once a week, Tofacitinib 5 mg/kg once a day
Excerpt: as §1

Q: What does the source list for `O=C(C(=O)N1CCC(n2c(=O)[nH]c3cccc(C(F)(F)F)c32)CC1)c1ccc(C(F)(F)F)cc1` [GEN1-160, 1-(4-(2-oxo-7-(trifluoromethyl)-2,3-dihydro-1H-benzo[d]imidazol-1-yl)piperidin-1-yl)-2-(4-(trifluoromethyl)phenyl)1,2-dione]?
A: Example of Effect 3: Inhibiting Ratio@10 μM (HTRF Experiment) [1]: 10.27%; Example of Effect 1: Inhibiting Ability (Protein Electrophoresis and Blotting) [2]: +

Q: Which “Example of Effect 3: Inhibiting Ratio@10 μM (HTRF Experiment)” value [1] does the source give for `O=C(Cc1ccc(C(F)(F)F)cc1)N1CCC(N2Cc3ccccc3NC2=O)CC1` [GEN1-161, 3-(1-(2-(4-(trifluoromethyl)phenyl)acetyl)piperidin-4-yl)-3,4-dihydroquinazolin-2(1H)-one] here?
A: 1.38%

Q: What about the “Example of Effect 1: Inhibiting Ability (Protein Electrophoresis and Blotting)” value (from here on “Example of Effect 1: Inhibiting Ability”) [2] of the same compound?
A: +

Q: Which “Example of Effect 3: Inhibiting Ratio@10 μM (HTRF Experiment)” value [1] does the source give for `O=C(Cc1ccc(C(F)(F)F)cc1)N1CCC(N2C(=O)NCc3ccccc32)CC1` [GEN1-162, 1-(1-(2-(4-(trifluoromethyl)phenyl)acetyl)piperidin-4-yl)-3,4-dihydroquinazolin-2(1H)-one] here?
A: 22.04%

Q: And the “Example of Effect 1: Inhibiting Ability” value [2]?
A: +

Q: For `Cc1[nH]c(=O)n(C2CCN(C(=O)Cc3ccc(C(F)(F)F)cc3)CC2)c1-c1ccccc1` [GEN1-166, 4-methyl-5-phenyl-1-(1-(2-(4-(trifluoromethyl)phenyl)acetyl)piperidin-4-yl)-1H-imidazole-2(3H)-one], which “Example of Effect 3: Inhibiting Ratio@10 μM (HTRF Experiment)” value [1] is on record?
A: 15.16%

Q: And the “Example of Effect 1: Inhibiting Ability” value [2]?
A: +

Q: Which results are given for `O=C(Cc1ccc(C(F)(F)F)cc1)N1CCC2(CC1)C(=O)Nc1ccccc12` [GEN1-167, 1′-(2-(4-(trifluoromethyl)phenyl)acetyl)spiro[indoline-3,4′-piperidine]-2-one]?
A: Example of Effect 3: Inhibiting Ratio@10 μM (HTRF Experiment) [1]: 15.57%; Example of Effect 1: Inhibiting Ability (Protein Electrophoresis and Blotting) [2]: +

Q: What does the source list for `COc1ccc(CC(=O)N2CCC(n3c(=O)[nH]c4cccc(C(F)(F)F)c43)CC2)cc1OC` [GEN1-168, 1-(1-(2-(3,4-dimethoxyphenyl)acetyl)piperidin-4-yl)-7-(trifluoromethyl)-1,3-dihydro-2H-benzo[d]imidazol-2-one]?
A: Example of Effect 3: Inhibiting Ratio@10 μM (HTRF Experiment) [1]: 47.57%; Example of Effect 1: Inhibiting Ability (Protein Electrophoresis and Blotting) [2]: +

Q: Which results are given for `O=C(Cc1c[nH]c2ccccc12)N1CCC(n2c(=O)[nH]c3cccc(C(F)(F)F)c32)CC1` [GEN1-169]?
A: Example of Effect 3: Inhibiting Ratio@10 μM (HTRF Experiment) [1]: 13.47%; Example of Effect 1: Inhibiting Ability (Protein Electrophoresis and Blotting) [2]: +

Q: With `CC(=O)/N=c1\[nH]c2cccc(C(F)(F)F)c2n1C1CCN(C(=O)Cc2ccc3ncccc3c2)CC1` [GEN1-171] as the compound, how does the “Example of Effect 3: Inhibiting Ratio@10 μM (HTRF Experiment)” value [1] read?
A: 9.85%

Q: What about the “Example of Effect 1: Inhibiting Ability” value [2] of the same compound?
A: −

Q: Which “Example of Effect 3: Inhibiting Ratio@10 μM (HTRF Experiment)” value [1] does the source give for `O=C(/N=c1\[nH]c2cccc(C(F)(F)F)c2n1C1CCN(C(=O)Cc2ccc3ncccc3c2)CC1)c1ccccc1` [GEN1-172] here?
A: 13.83%

Q: And the “Example of Effect 1: Inhibiting Ability” value [2]?
A: −

Q: For `O=C(Cc1ccc2ncccc2c1)N1CCCC(n2c(=O)[nH]c3cccc(C(F)(F)F)c32)CC1` (centres unmarked) [GEN1-173, 1-(1-(2-(quinolin-6-yl)acetyl)azacycloheptane-4-yl)-7-(trifluoromethyl)-1,3-dihydro-2H-benzo[d]imidazol-2-one], which “Example of Effect 3: Inhibiting Ratio@10 μM (HTRF Experiment)” value [1] is on record?
A: 50.75%

Q: What about the “Example of Effect 1: Inhibiting Ability” value [2] of the same compound?
A: +

Q: Which “Example of Effect 3: Inhibiting Ratio@10 μM (HTRF Experiment)” value [1] does the source give for `O=C(Cc1ccc(C(F)(F)F)cc1)N1CCC(Cn2c(=O)[nH]c3cccc(C(F)(F)F)c32)CC1` [GEN1-174, 7-(trifluoromethyl)-1-((1-(2-(4-(trifluoromethyl)phenyl)acetyl)piperidin-4-yl)methyl)-1H-benzo[d]imidazol-2(3H)-one] here?
A: 39.65%

Q: And the “Example of Effect 1: Inhibiting Ability” value [2]?
A: +

Q: Which “clinical score of arthritis, Mean (the larger the value, the more severe the disease)” value (from here on “clinical score of arthritis, Mean”) ([3]; day 0) does the source give for `CN(Cc1cnc2nc(N)nc(N)c2n1)c1ccc(C(=O)N[C@@H](CCC(=O)O)C(=O)O)cc1` [Methotrexate, methotrexate] here?
A: 0.00

Q: And the “clinical score of arthritis, Mean” value ([3]; day 21)?
A: 0.00

Q: And the “clinical score of arthritis, Mean” value ([3]; day 25)?
A: 0.00

Q: And the “clinical score of arthritis, Mean” value ([3]; day 28)?
A: 0.40

Q: What about the “clinical score of arthritis, Mean” value ([3]; day 31) of the same compound?
A: 1.32

Q: What about the “clinical score of arthritis, Mean” value ([3]; day 33) of the same compound?
A: 1.55

Q: What about the “clinical score of arthritis, Mean” value ([3]; day 35) of the same compound?
A: 2.05

Q: What about the “clinical score of arthritis, Mean” value ([3]; day 38) of the same compound?
A: 2.41

Q: What about the “clinical score of arthritis, Mean” value ([3]; day 40) of the same compound?
A: 2.60

Q: What about the “clinical score of arthritis, Mean” value ([3]; day 42) of the same compound?
A: 3.66

Q: What about the “clinical score of arthritis, Mean” value ([3]; day 45) of the same compound?
A: 4.61

Q: And the “body weight of animals, Mean/g” value ([4]; day 0)?
A: 21.92 g

Q: What about the “body weight of animals, Mean/g” value ([4]; day 4) of the same compound?
A: 22.30 g

Q: And the “body weight of animals, Mean/g” value ([4]; day 7)?
A: 22.91 g

Q: And the “body weight of animals, Mean/g” value ([4]; day 11)?
A: 23.33 g

Q: And the “body weight of animals, Mean/g” value ([4]; day 14)?
A: 21.72 g

Q: And the “body weight of animals, Mean/g” value ([4]; day 18)?
A: 23.92 g

Q: And the “body weight of animals, Mean/g” value ([4]; day 20)?
A: 24.09 g

Q: What about the “body weight of animals, Mean/g” value ([4]; day 25) of the same compound?
A: 23.64 g

Q: What about the “body weight of animals, Mean/g” value ([4]; day 28) of the same compound?
A: 23.48 g

Q: What about the “body weight of animals, Mean/g” value ([4]; day 31) of the same compound?
A: 23.12 g

Q: And the “body weight of animals, Mean/g” value ([4]; day 33)?
A: 23.00 g

Q: What about the “body weight of animals, Mean/g” value ([4]; day 35) of the same compound?
A: 22.08 g

Q: What about the “body weight of animals, Mean/g” value ([4]; day 38) of the same compound?
A: 22.86 g

Q: And the “body weight of animals, Mean/g” value ([4]; day 40)?
A: 22.70 g

Q: What about the “body weight of animals, Mean/g” value ([4]; day 42) of the same compound?
A: 22.45 g

Q: And the “body weight of animals, Mean/g” value ([4]; day 45)?
A: 22.30 g

Q: And the “effect on body weight of animals (in words)” value ([4]; whole experiment, days 0-45, methotrexate 0.25 mg/kg once a week, tofacitinib 5 mg/kg once a day)?
A: two sudden drops
